From patent US12077503B2, “Substituted cyclic amides and their use as herbicides” (FMC CORPORATION, priority 2015, dated 2024)

Experiments:
Format in all cases: in vivo
[1] = tested on: barnyardgrass (Echinochloa crus-galli); assay: Test G Pre-Emergence Protocol; conditions: Echinochloa crus-galli, pre-emergence, 312 h, evaluated after 13 days; for pest or weed control at 15.625 g/ha: 15.625 g ai/ha, read-out: Barnyard grass damage rating (100=total damage to plant; 0=no damage to plant); for pest or weed control at 62.5 g/ha: 62.5 g ai/ha, 100=total damage to plant, 0=no damage to plant, read-out: plant damage rating, Barnyardgrass; for pest or weed control at 250 g/ha: 250 g ai/ha, read-out: Barnyardgrass damage rating (100=total damage to plant; 0=no damage to plant)
How it was run: (§1)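 Pre-emergence spray, 15.625/62.5/250 g/ha, vehicle acetone:water 50:50 + 0.5% Tween 20, applied 1 d after sowing. Glasshouse 24/16° C, 14 h light, 65% RH, watered twice daily. Visual damage rating at 13 d, 0–100 scale.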

corn (Zea mays) [2] = assay: Test G Pre-Emergence Protocol; conditions: Zea mays, pre-emergence, 312 h, evaluated after 13 days; for plant injury at 15.625 g/ha: 15.625 g ai/ha; for plant injury at 15.625 g/ha / plant injury at 250 g/ha: read-out: Corn damage rating (100=total damage to plant; 0=no damage to plant); for plant injury at 62.5 g/ha: 62.5 g ai/ha, 100=total damage to plant, 0=no damage to plant, read-out: plant damage rating, Corn; for plant injury at 250 g/ha: 250 g ai/ha
How it was run: as §1

[3] = tested on: giant foxtail (Setaria faberi); assay: Test G Pre-Emergence Protocol; conditions: Setaria faberi, pre-emergence, 312 h, evaluated after 13 days; for pest or weed control at 15.625 g/ha: 15.625 g ai/ha; for pest or weed control at 15.625 g/ha / pest or weed control at 250 g/ha: read-out: Foxtail, Giant damage rating (100=total damage to plant; 0=no damage to plant); for pest or weed control at 62.5 g/ha: 62.5 g ai/ha, 100=total damage to plant, 0=no damage to plant, read-out: plant damage rating, Foxtail, Giant; for pest or weed control at 250 g/ha: 250 g ai/ha
How it was run: as §1

[4] = tested on: ivy-leaved morning glory (Ipomoea hederacea); assay: Test G Pre-Emergence Protocol; conditions: Ipomoea, pre-emergence, 312 h, evaluated after 13 days; for pest or weed control at 15.625 g/ha: 15.625 g ai/ha, read-out: Morning-glory, Ivy-leaved damage rating (100=total damage to plant; 0=no damage to plant); for pest or weed control at 62.5 g/ha: 62.5 g ai/ha, 100=total damage to plant, 0=no damage to plant, read-out: plant damage rating, Morningglory, Ivy-leaved; for pest or weed control at 250 g/ha: 250 g ai/ha, read-out: Morningglory, Ivy-leaved damage rating (100=total damage to plant; 0=no damage to plant)
How it was run: as §1

[5] = tested on: redroot pigweed (Amaranthus retroflexus); assay: Test G Pre-Emergence Protocol; conditions: Amaranthus retroflexus, pre-emergence, 312 h, evaluated after 13 days; for pest or weed control at 15.625 g/ha: 15.625 g ai/ha; for pest or weed control at 15.625 g/ha / pest or weed control at 250 g/ha: read-out: Pigweed, Redroot damage rating (100=total damage to plant; 0=no damage to plant); for pest or weed control at 62.5 g/ha: 62.5 g ai/ha, 100=total damage to plant, 0=no damage to plant, read-out: plant damage rating, Pigweed, Redroot; for pest or weed control at 250 g/ha: 250 g ai/ha
How it was run: as §1

[6] = tested on: velvetleaf (Abutilon theophrasti); assay: Test G Pre-Emergence Protocol; conditions: Abutilon theophrasti, pre-emergence, 312 h, evaluated after 13 days; for pest or weed control at 15.625 g/ha: 15.625 g ai/ha; for pest or weed control at 15.625 g/ha / pest or weed control at 250 g/ha: read-out: Velvetleaf damage rating (100=total damage to plant; 0=no damage to plant); for pest or weed control at 62.5 g/ha: 62.5 g ai/ha, 100=total damage to plant, 0=no damage to plant, read-out: plant damage rating, Velvetleaf; for pest or weed control at 250 g/ha: 250 g ai/ha
How it was run: as §1

[7] = tested on: barnyardgrass (Echinochloa crus-galli); assay: Test G Post-Emergence Protocol; conditions: Echinochloa crus-galli, post-emergence, 312 h; for pest or weed control at 15.625 g/ha: 15.625 g ai/ha, evaluated after 13 days (100=total damage to plant; 0=no damage to plant), read-out: Barnyardgrass damage rating; for pest or weed control at 62.5 g/ha: 62.5 g ai/ha, read-out: Barnyardgrass damage rating (100=total damage to plant; 0=no damage to plant); for pest or weed control at 62.5 g/ha / pest or weed control at 250 g/ha: evaluated after 13 days; for pest or weed control at 250 g/ha: 250 g ai/ha, read-out: damage to plant, Barnyardgrass (100=total damage to plant; 0=no damage to plant)
How it was run: (§2)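 Seedlings grown 8 days in soil in a glasshouse (24/16 °C day/night, 14 h light, 65% humidity) were sprayed post-emergence with compound in acetone/water 50:50 plus 0.5% Tween 20 at 15.625, 62.5 or 250 g/ha. Damage was scored after 13 days on a 0–100 scale (100 = total damage).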

corn (Zea mays) [8] = assay: Test G Post-Emergence Protocol; conditions: Zea mays, post-emergence, 312 h; for plant injury at 15.625 g/ha: 15.625 g ai/ha, evaluated after 13 days (100=total damage to plant; 0=no damage to plant), read-out: Corn damage rating; for plant injury at 62.5 g/ha: 62.5 g ai/ha, read-out: Corn damage rating (100=total damage to plant; 0=no damage to plant); for plant injury at 62.5 g/ha / plant injury at 250 g/ha: evaluated after 13 days; for plant injury at 250 g/ha: 250 g ai/ha, read-out: damage to plant, Corn (100=total damage to plant; 0=no damage to plant)
How it was run: as §2

[9] = tested on: giant foxtail (Setaria faberi); assay: Test G Post-Emergence Protocol; conditions: Setaria faberi, post-emergence, 312 h; for pest or weed control at 15.625 g/ha: 15.625 g ai/ha, evaluated after 13 days (100=total damage to plant; 0=no damage to plant), read-out: Foxtail, Giant damage rating; for pest or weed control at 62.5 g/ha: 62.5 g ai/ha, read-out: Foxtail, Giant damage rating (100=total damage to plant; 0=no damage to plant); for pest or weed control at 62.5 g/ha / pest or weed control at 250 g/ha: evaluated after 13 days; for pest or weed control at 250 g/ha: 250 g ai/ha, read-out: damage to plant, Foxtail, Giant (100=total damage to plant; 0=no damage to plant)
How it was run: as §2

[10] = tested on: ivy-leaved morning glory (Ipomoea hederacea); assay: Test G Post-Emergence Protocol; conditions: Ipomoea, post-emergence, 312 h; for pest or weed control at 15.625 g/ha: 15.625 g ai/ha, evaluated after 13 days (100=total damage to plant; 0=no damage to plant), read-out: Morningglory, Ivy-leaved damage rating; for pest or weed control at 62.5 g/ha: 62.5 g ai/ha, read-out: Morningglory, Ivy-leaved damage rating (100=total damage to plant; 0=no damage to plant); for pest or weed control at 62.5 g/ha / pest or weed control at 250 g/ha: evaluated after 13 days; for pest or weed control at 250 g/ha: 250 g ai/ha, read-out: damage to plant, Morningglory, Ivy-leaved (100=total damage to plant; 0=no damage to plant)
How it was run: as §2

[11] = tested on: redroot pigweed (Amaranthus retroflexus); assay: Test G Post-Emergence Protocol; conditions: Amaranthus retroflexus, post-emergence, 312 h; for pest or weed control at 15.625 g/ha: 15.625 g ai/ha, evaluated after 13 days (100=total damage to plant; 0=no damage to plant), read-out: Pigweed, Redroot damage rating; for pest or weed control at 62.5 g/ha: 62.5 g ai/ha, read-out: Pigweed, Redroot damage rating (100=total damage to plant; 0=no damage to plant); for pest or weed control at 62.5 g/ha / pest or weed control at 250 g/ha: evaluated after 13 days; for pest or weed control at 250 g/ha: 250 g ai/ha, read-out: damage to plant, Pigweed, Redroot (100=total damage to plant; 0=no damage to plant)
How it was run: as §2

[12] = tested on: velvetleaf (Abutilon theophrasti); assay: Test G Post-Emergence Protocol; conditions: Abutilon theophrasti, post-emergence, 312 h; for pest or weed control at 15.625 g/ha: 15.625 g ai/ha, evaluated after 13 days (100=total damage to plant; 0=no damage to plant), read-out: Velvetleaf damage rating; for pest or weed control at 62.5 g/ha: 62.5 g ai/ha, read-out: Velvetleaf damage rating (100=total damage to plant; 0=no damage to plant); for pest or weed control at 62.5 g/ha / pest or weed control at 250 g/ha: evaluated after 13 days; for pest or weed control at 250 g/ha: 250 g ai/ha, read-out: damage to plant, Velvetleaf (100=total damage to plant; 0=no damage to plant)
How it was run: as §2

| SMILES | pest or weed control at 15.625 g/ha [1] | pest or weed control at 62.5 g/ha [1] | pest or weed control at 250 g/ha [1] | plant injury at 15.625 g/ha (corn (Zea mays) [2]) | plant injury at 62.5 g/ha (corn (Zea mays) [2]) | plant injury at 250 g/ha (corn (Zea mays) [2]) | pest or weed control at 15.625 g/ha [3] | pest or weed control at 62.5 g/ha [3] | pest or weed control at 250 g/ha [3] | pest or weed control at 15.625 g/ha [4] | pest or weed control at 62.5 g/ha [4] | pest or weed control at 250 g/ha [4] | pest or weed control at 15.625 g/ha [5] | pest or weed control at 62.5 g/ha [5] | pest or weed control at 250 g/ha [5] | pest or weed control at 15.625 g/ha [6] | pest or weed control at 62.5 g/ha [6] | pest or weed control at 250 g/ha [6] | pest or weed control at 15.625 g/ha [7] | pest or weed control at 62.5 g/ha [7] | also measured |
| --- | --- | --- | --- | --- | --- | --- | --- | --- | --- | --- | --- | --- | --- | --- | --- | --- | --- | --- | --- | --- | --- |
| Cc1ccc(NC(=O)[C@@H]2C(=O)N(C)C[C@H]2c2ccc(C(F)(F)F)cc2)c(F)c1 (racemic) [Compound 1591] | 0% | 50% | 70% | 0% | 10% | 0% | 0% | 70% | 80% | 0% | 0% | 0% | 0% | 0% | 0% | 0% | 0% | 10% | 0% | 30% | pest or weed control at 250 g/ha [7]: 50%; plant injury at 15.625 g/ha (corn (Zea mays) [8]): 0%; plant injury at 62.5 g/ha (corn (Zea mays) [8]): 0%; plant injury at 250 g/ha (corn (Zea mays) [8]): 10%; pest or weed control at 15.625 g/ha [9]: 0%; pest or weed control at 62.5 g/ha [9]: 70%; pest or weed control at 250 g/ha [9]: 80%; pest or weed control at 15.625 g/ha [10]: 0%; pest or weed control at 62.5 g/ha [10]: 10%; pest or weed control at 250 g/ha [10]: 10%; pest or weed control at 15.625 g/ha [11]: 0%; pest or weed control at 62.5 g/ha [11]: 10%; pest or weed control at 250 g/ha [11]: 10%; pest or weed control at 15.625 g/ha [12]: 0%; pest or weed control at 62.5 g/ha [12]: 0%; pest or weed control at 250 g/ha [12]: 10% |
| CN1C[C@@H](c2ccc(C(F)(F)F)cc2)[C@H](C(=O)Nc2ccccn2)C1=O (racemic) [Compound 1596] | 0% | 0% | 70% | 0% | 0% | 0% | 0% | 40% | 80% | 0% | 10% | 100% | 0% | 20% | 60% | 0% | 0% | 20% | 0% | 30% | pest or weed control at 250 g/ha [7]: 70%; plant injury at 15.625 g/ha (corn (Zea mays) [8]): 0%; plant injury at 62.5 g/ha (corn (Zea mays) [8]): 0%; plant injury at 250 g/ha (corn (Zea mays) [8]): 10%; pest or weed control at 15.625 g/ha [9]: 0%; pest or weed control at 62.5 g/ha [9]: 60%; pest or weed control at 250 g/ha [9]: 80%; pest or weed control at 15.625 g/ha [10]: 0%; pest or weed control at 62.5 g/ha [10]: 10%; pest or weed control at 250 g/ha [10]: 20%; pest or weed control at 15.625 g/ha [11]: 0%; pest or weed control at 62.5 g/ha [11]: 10%; pest or weed control at 250 g/ha [11]: 40%; pest or weed control at 15.625 g/ha [12]: 0%; pest or weed control at 62.5 g/ha [12]: 0%; pest or weed control at 250 g/ha [12]: 10% |
